Measurements as given in PMC4727990 (Bioorganic & medicinal chemistry letters, 2015).

Legend:
[1] = system: ASCT2; conditions: cited from earlier work
[2] = target: ASCT2; conditions: read-out: apparent affinity; inhibitor of ASCT2; cited from earlier work
[3] = target: T1, ASCT2 (Rattus norvegicus, UniProt D3ZJ25); experiment: ASCT2-mediated 3H-glutamine uptake in C6 cells; assay type: cell-based
T1 sequence (D3ZJ25 1-555): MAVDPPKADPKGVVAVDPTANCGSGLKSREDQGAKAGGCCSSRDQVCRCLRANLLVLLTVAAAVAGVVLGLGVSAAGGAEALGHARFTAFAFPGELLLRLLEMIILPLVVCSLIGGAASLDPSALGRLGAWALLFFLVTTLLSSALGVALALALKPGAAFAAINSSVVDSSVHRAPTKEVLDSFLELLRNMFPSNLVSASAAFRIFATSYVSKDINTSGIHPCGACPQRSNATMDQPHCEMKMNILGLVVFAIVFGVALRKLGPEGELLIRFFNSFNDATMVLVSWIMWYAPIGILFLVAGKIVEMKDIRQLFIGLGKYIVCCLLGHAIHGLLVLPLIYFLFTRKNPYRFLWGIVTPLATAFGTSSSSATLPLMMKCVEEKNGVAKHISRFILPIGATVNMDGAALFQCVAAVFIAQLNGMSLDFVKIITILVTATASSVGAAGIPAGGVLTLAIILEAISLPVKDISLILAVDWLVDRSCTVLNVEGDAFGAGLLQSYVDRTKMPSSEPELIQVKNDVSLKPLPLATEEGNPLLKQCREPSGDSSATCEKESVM

N[C@@H](CCC(=O)Nc1ccc([N+](=O)[O-])cc1)C(=O)O [Compound 1, L-γ-glutamyl-p-nitroanilide]
potency against ASCT2 [1]: modest potency in the low millimolar range

N[C@@H](COC(=O)c1ccc(-c2ccccc2)cc1)C(=O)O [Compound 3, O-(4-phenylbenzoyl)-L-serine]
Ki [2]: 30 µM

Cc1cccc(COc2ccccc2CN(CC[C@H](N)C(=O)O)Cc2ccccc2OCc2cccc(C)c2)c1 [Compound 17]
IC50 [3]: 9 µM

N-(2-(morpholinomethyl)phenyl)-L-glutamine [Compound 2]
improvement of activity against ASCT2 compared to GPNA [1]: three-fold improved activity
